In US20220313774A1, “INTRANASAL ADMINISTRATION OF MEROTOCIN FOR IMPROVING LACTATION” (FERRING B.V., priority 2019, published 2022):
Where two headings read alike, the source gives them in different places. *1 amine or outer side, *2 acyl side, *3 side chain or, on linkers, in order; H or OH if unused. Where a SMILES comes first, the peptide text is derived from it. Bridges are numbered along the chain shown (N, C = ends). [ ]: non-standard residue; d: D form. N(4-F-Bzl)Gly = O=C(O)CNCc1ccc(F)cc1; X1 = O=C(CCC[*:2])[*:1]

Experiments:
healthy women [1] = test system: healthy women;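 as to Any AE: number of AEs, E: adverse events in healthy women given intranasal doses every 3 h over 45 h (16 doses per panel), each panel with 6 active and 2 placebo subjects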;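 as to Any AE: subjects with AE, n (%): adverse events in healthy women given intranasal doses every 3 h over 45 h (16 doses per panel), each panel with 6 active and 2 placebo subjects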;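 as to Breast tenderness: number of AEs, E: adverse events in healthy women given intranasal doses every 3 h over 45 h (16 doses per panel), each panel with 6 active and 2 placebo subjects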;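 as to Breast tenderness: subjects with AE, n (%): adverse events in healthy women given intranasal doses every 3 h over 45 h (16 doses per panel), each panel with 6 active and 2 placebo subjects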
Experimental: Part 2. Ascending multiple i.n. doses. There were 3 dose panels with 8 healthy women in each dose panel (6 active, 2 placebo). The dosing schedule was every 3 hours for 45 hours, i.e. 16 doses in all. The doses investigated were 50 μg, 200 μg, and 400 μg.
Three dose levels were investigated: the first dose was 50 μg, the second dose was 200 μg (intermediate between the first dose and the maximal tolerated dose in Part 1), and the highest dose was 400 μg (the maximal dose in Part 1).

healthy women [2] = conditions: in vivo
clinical = conditions: female, human, in vivo
Experimental: (§1) The first clinical trial in human, Trial 000015, was a double-blind, placebo-controlled, single dose, within dose panel randomised, sequential dose escalating study. The trial was divided into three parts:
(§2) Part 1. Ascending single i.n. doses. There were 7 dose panels with 8 healthy women in each dose panel (6 active, 2 placebo). The doses investigated were 5 μg, 15 μg, 50 μg, 100 μg, 200 μg, 300 μg, and 400 μg.
(§3) Seven dose levels were investigated: 5, 15, 50, 100, 200, 300, and 400 μg. Each of the doses were administered as a nasal spray based on one or multiple puffs per nostril.
(§4) FE 202767 was provided as an isotonic citrate/phosphate buffered solution of pH 5.5 in water in vials containing an extractable volume of 0.9 mL (Table 2). The concentration of FE 202767 was 0.7 mg/mL, to be used appropriately diluted with buffer or, for Part 3, NaCl for injection. The buffer used for FE 202767 was used as placebo in this study.

[3] = Trial 000015 Part 1: pharmacokinetics after single intranasal administration
Experimental: as §1, §2, §3, §4

[4] = Trial 000015 Part 3: pharmacokinetics, single intranasal and single intravenous cross-over; conditions: female, human, plasma; for Tmax: tmax Mean (SD); for bioavailability: 400 μg i.n. vs 20 μg i.v.
Experimental: Open-label cross-over single i.n. and single i.v. dose in 6 healthy women. The doses investigated were 20 μg as an i.v. infusion over 25 minutes, and 400 μg as a single i.n. dose.
The intranasal dose was 400 μg (4×140 μl, the same as the highest dose in Part 1), the i.v. dose was 20 μg infused in 2 mL over 25 minutes.
The intravenous dose and infusion rate were determined from the intranasal pharmacokinetic data in Part 1.

[5] = multiple doses 50 μg i.n., N = 6
[6] = multiple doses 200 μg i.n., N = 6
[7] = multiple doses 400 μg i.n., N = 6

CC[C@H](C)[C@@H]1NC(=O)[C@H](Cc2ccc(O)cc2)NC(=O)CCCSC[C@@H](C(=O)N(CC(=O)N[C@@H](CC(C)C)C(=O)NCC(N)=O)Cc2ccc(F)cc2)NC(=O)[C@H](CC(N)=O)NC(=O)[C@H](CCC(N)=O)NC1=O [merotocin, Glycinamide, N-(4-mercapto-1-oxobutyl)-L-tyrosyl-L-isoleucyl-Lglutaminyl-L-asparaginyl-L-cysteinyl-N-[(4-fluorophenyl)methyl]glycyl-L-leucyl-, cyclic (1→5)-thioether] (YIQNC[N(4-F-Bzl)Gly]LG-NH2; linker N-5 via X1)
Any AE: number of AEs, E (healthy women [1]; [5]): 3
Any AE: subjects with AE, n (%) (healthy women [1]; [5]): 3 (50%)
Breast tenderness: number of AEs, E (healthy women [1]; [5]): 1
Breast tenderness: subjects with AE, n (%) (healthy women [1]; [5]): 1 (17%)
Headache: number of AEs, E (healthy women [1]; [5]): 2
Headache: subjects with AE, n (%) (healthy women [1]; [5]): 2 (33%)
Any AE: number of AEs, E (healthy women [1]; [6]): 5
Any AE: subjects with AE, n (%) (healthy women [1]; [6]): 4 (67%)
Dry mouth: number of AEs, E (healthy women [1]; [6]): 3
Dry mouth: subjects with AE, n (%) (healthy women [1]; [6]): 3 (50%)
Flushing: number of AEs, E (healthy women [1]; [6]): 1
Flushing: subjects with AE, n (%) (healthy women [1]; [6]): 1 (17%)
Headache: number of AEs, E (healthy women [1]; [6]): 1
Headache: subjects with AE, n (%) (healthy women [1]; [6]): 1 (17%)
Any AE: number of AEs, E (healthy women [1]; [7]): 6
Any AE: subjects with AE, n (%) (healthy women [1]; [7]): 3 (50%)
Dry mouth: number of AEs, E (healthy women [1]; [7]): 2
Dry mouth: subjects with AE, n (%) (healthy women [1]; [7]): 2 (33%)
Flushing: number of AEs, E (healthy women [1]; [7]): 1
Flushing: subjects with AE, n (%) (healthy women [1]; [7]): 1 (17%)
Headache: number of AEs, E (healthy women [1]; [7]): 2
Headache: subjects with AE, n (%) (healthy women [1]; [7]): 1 (17%)
Nausea: number of AEs, E (healthy women [1]; [7]): 1
Nausea: subjects with AE, n (%) (healthy women [1]; [7]): 1 (17%)
number of TEAEs reported (healthy women [1]; multiple doses, 24 subjects): 14
degradation by chymotrypsin (chymotrypsin): degradable by chymotrypsin
ECG and safety laboratory parameters (healthy women [2]): not affected to any measurable extent
blood pressure shifts (healthy women [2]): Only occasional events of blood pressure shifts
pulse rate (healthy women [2]): appeared to increase the pulse rate
urinary retention (healthy women [2]): no signs of urinary retention
half-life (clinical; inhaled or intranasal, 200 ug, t1/2 Median): 23.4 min
half-life (clinical; inhaled or intranasal, 400 ug, t1/2 Harmonic mean): 33.6 min
half-life (clinical; inhaled or intranasal, 400 ug, t1/2 Median): 33 min
half-life (clinical; t1/2): 25 to 35 min
Cmax ([3]; female, human, plasma, inhaled or intranasal, 100 ug, Cmax Geom. mean (% CV), single i.n. dose 100 μg, N = 6): 0.0379 ng/mL
Cmax ([3]; female, human, plasma, inhaled or intranasal, 100 ug, Cmax Median, single i.n. dose 100 μg, N = 6): 0.0322 ng/mL
AUC(0-t) ([3]; female, human, plasma, inhaled or intranasal, 200 ug, AUCt Geom. mean (% CV), single i.n. dose 200 μg, N = 6): 0.0357 ng·h/mL
AUC(0-t) ([3]; female, human, plasma, inhaled or intranasal, 200 ug, AUCt Median, single i.n. dose 200 μg, N = 6): 0.0525 ng·h/mL
Cmax ([3]; female, human, plasma, inhaled or intranasal, 200 ug, Cmax Geom. mean (% CV), single i.n. dose 200 μg, N = 6): 0.0841 ng/mL
Cmax ([3]; female, human, plasma, inhaled or intranasal, 200 ug, Cmax Median, single i.n. dose 200 μg, N = 6): 0.0999 ng/mL
AUC(0-t) ([3]; female, human, plasma, inhaled or intranasal, 300 ug, AUCt Geom. mean (% CV), single i.n. dose 300 μg, N = 6): 0.0778 ng·h/mL
AUC(0-t) ([3]; female, human, plasma, inhaled or intranasal, 300 ug, AUCt Median, single i.n. dose 300 μg, N = 6): 0.0943 ng·h/mL
Cmax ([3]; female, human, plasma, inhaled or intranasal, 300 ug, Cmax Geom. mean (% CV), single i.n. dose 300 μg, N = 6): 0.143 ng/mL
Cmax ([3]; female, human, plasma, inhaled or intranasal, 300 ug, Cmax Median, single i.n. dose 300 μg, N = 6): 0.148 ng/mL
Tmax ([3]; female, human, plasma, inhaled or intranasal, 300 ug, tmax Mean (SD), single i.n. dose 300 μg, N = 6): 12 min
AUC(0-t) ([3]; female, human, plasma, inhaled or intranasal, 400 ug, AUCt Geom. mean (% CV), single i.n. dose 400 μg, N = 6): 0.0886 ng·h/mL
AUC(0-t) ([3]; female, human, plasma, inhaled or intranasal, 400 ug, AUCt Median, single i.n. dose 400 μg, N = 6): 0.119 ng·h/mL
Cmax ([3]; female, human, plasma, inhaled or intranasal, 400 ug, Cmax Median, single i.n. dose 400 μg, N = 6): 0.199 ng/mL
Tmax ([3]; female, human, plasma, inhaled or intranasal, 400 ug, tmax Mean (SD), single i.n. dose 400 μg, N = 6): 13.2 min
Tmax ([3]; female, human, plasma, other: intranasal, tmax, all i.n. dose levels, single or multiple administration): 12 to 15 min
Tmax ([3]; female, human, plasma, other: intranasal, tmax, single i.n. dose, all dose groups): 12 to 15 min
half-life ([3]; female, human, plasma, other: intranasal, t½, after i.n. administration, Trial 000015 key results): ~30 min
increase of exposure (AUC and Cmax) with dose ([3]; single i.n. doses): close to dose proportional manner
AUC(0-t) ([4]; inhaled or intranasal, 400 ug, AUCt Geom. mean (% CV), cross-over, 400 μg i.n. single dose, N = 6): 0.083 ng·h/mL
AUC(0-t) ([4]; inhaled or intranasal, 400 ug, AUCt Median, cross-over, 400 μg i.n. single dose, N = 6): 0.0728 ng·h/mL
half-life ([4]; inhaled or intranasal, 400 ug, t1/2 Median, cross-over, 400 μg i.n. single dose, N = 6): 36.6 min
Tmax ([4]; inhaled or intranasal, 400 ug, cross-over, 400 μg i.n. single dose, N = 6): 6.6 min
AUC(0-t) ([4]; iv, 20 ug, AUCt Geom. mean (% CV), cross-over, 20 μg i.v. infusion over 25 minutes, N = 6): 0.146 ng·h/mL
clearance ([4]; iv, 20 ug, CL Median, 20 μg i.v. infusion over 25 minutes, N = 6): 2130 mL/min
Cmax ([4]; iv, 20 μg, Cmax Geom. mean (% CV), cross-over, 20 μg i.v. infusion over 25 minutes, N = 6): 0.463 ng/mL
Cmax ([4]; iv, 20 ug, Cmax Median, cross-over, 20 μg i.v. infusion over 25 minutes, N = 6): 0.463 ng/mL
Vd ([4]; iv, 20 ug, Vz Mean (SD), 20 μg i.v. infusion over 25 minutes, N = 6): 37.5 L
Vd ([4]; iv, 20 ug, Vz Median, 20 μg i.v. infusion over 25 minutes, N = 6): 31.2 L
Cmax ([4]; iv, 20 μg, mean Cmax, single i.v. infusion of 20 μg over 25 minutes): 0.463 ng/mL
half-life ([4]; iv, 20 ug, t1/2 Harmonic mean, cross-over, 20 μg i.v. infusion over 25 minutes, N = 6): 10.2 min
half-life ([4]; iv, 20 ug, t1/2 Median, cross-over, 20 μg i.v. infusion over 25 minutes, N = 6): 10.8 min
Tmax ([4]; iv, 20 ug, cross-over, 20 μg i.v. infusion over 25 minutes, N = 6): 21.6 min
Cmax ([4]; other: intranasal, 400 ug, Cmax Geom. mean (% CV), cross-over, 400 μg i.n. single dose, N = 6): 0.151 ng/mL
Cmax ([4]; other: intranasal, 400 ug, Cmax Median, cross-over, 400 μg i.n. single dose, N = 6): 0.156 ng/mL
bioavailability ([4]; other: intranasal, 400 μg, F Median, N = 6): 3.4%
bioavailability ([4]; other: intranasal, 400 μg, bioavailability (range)): 2.2 to 6.2%
Cmax ([4]; other: intranasal, 400 μg, mean Cmax, single dose i.n. administration, highest dose group): 0.151 ng/mL
